Series [1] concerns Yersinia pestis. As to the kind of experiment: Antibacterial activity against Yersinia pestis Colorado 92 infected in African green monkey 8047 model assessed as bacterial burden in lung at 6.25 mg/kg, iv administered within 6 hrs post onset of sustained fever as 30 mins infusion for 10 days (reference value: 7.7 10^8CFU/g). It counts as functional, CO92.
The test system of series [2] is Yersinia pestis. As to the kind of experiment: Antibacterial activity against Yersinia pestis Colorado 92 infected in African green monkey B6672 model assessed as bacterial burden in liver at 12.5 mg/kg, iv administered within 6 hrs post onset of sustained fever as 30 mins infusion for 5 days (reference value: 5.2 10^8CFU/g). Type of series: functional, CO92.
Series [3] has as its system Yersinia pestis. As to the kind of experiment: Antibacterial activity against Yersinia pestis Colorado 92 infected in African green monkey B6861 model assessed as bacterial burden in spleen at 6.25 mg/kg, iv administered within 6 hrs post onset of sustained fever as 30 mins infusion for 5 days (reference value: 1.6 10^9CFU/g). It counts as functional, CO92.
In series [4] the test system is Yersinia pestis. As to the kind of experiment: Antibacterial activity against Yersinia pestis Colorado 92 infected in African green monkey B6988 model assessed as bacterial burden in blood at 6.25 mg/kg, iv administered within 6 hrs post onset of sustained fever as 30 mins infusion for 5 days (reference value: 1.2 10^7CFU/ml). It counts as functional, CO92.
For series [5], the system named is Yersinia pestis. Kind of series: Antibacterial activity against Yersinia pestis Colorado 92 infected in African green monkey assessed as survival of monkey at 12.5 mg/kg, iv administered within 6 hrs post onset of sustained fever as 30 mins infusion for 5 days. Type of series: functional. The conditions noted are these: CO92, iv.
Series [6] deals with Yersinia pestis. Kind of series: Antibacterial activity against Yersinia pestis Colorado 92 infected in African green monkey B6672 model assessed as bacterial burden in tracheobronchial lymph nodes at 12.5 mg/kg, iv administered within 6 hrs post onset of sustained fever as 30 mins infusion for 5 days (reference value: 7.7 10^9CFU/g). Type of series: functional, CO92, Lymph node.

Series [7] has as its system Yersinia pestis. As to the kind of experiment: Antibacterial activity against Yersinia pestis Colorado 92 infected in African green monkey B6106 model assessed as bacterial burden in spleen at 25 mg/kg, iv administered within 6 hrs post onset of sustained fever as 30 mins infusion for 5 days (reference value: 1.6 10^9CFU/g). It counts as functional, CO92.
A short description of series [8]: Toxicity in African green monkey B6140 model infected with Yersinia pestis Colorado 92 assessed as total white blood cell count at 25 mg/kg, iv administered within 6 hrs post onset of sustained fever as 30 mins infusion for 10 days (reference value: 6.8 10^3/microL). Type of series: organism-based. The conditions noted are these: chlorocebus aethiops, in vivo.
Series [9] relates to African green monkey. As to the kind of experiment: Toxicity in African green monkey B6408 model infected with Yersinia pestis Colorado 92 assessed as serum alanine aminotransferase level at 25 mg/kg, iv administered within 6 hrs post onset of sustained fever as 30 mins infusion for 10 days (reference value: 109 IU/L). The conditions noted are these: chlorocebus sabaeus, in vivo. Type of series: organism-based.

A short description of series [10]: Cmax in African green monkey blood at 35 mg/kg administered as iv infusion twice daily for 7 consecutive days measured on day 7 by LC-MS/MS analysis. Type of series: ADME, organism-based. Set-up: dose 35 mg/kg, route intravenous. The conditions noted are these: chlorocebus aethiops.
For series [11], the system named is African green monkey. Kind of series: Toxicity in African green monkey 7653 model infected with Yersinia pestis Colorado 92 assessed as blood urea nitrogen level at 25 mg/kg, iv administered within 6 hrs post onset of sustained fever as 30 mins infusion for 10 days (reference value: 22 mg/dl). It counts as organism-based. The conditions noted are these: chlorocebus sabaeus, in vivo.

Series [12] has as its system African green monkey. Kind of series: Toxicity in African green monkey 7972 model infected with Yersinia pestis Colorado 92 assessed as serum gamma glutamyl-transferase level at 25 mg/kg, iv administered within 6 hrs post onset of sustained fever as 30 mins infusion for 10 days (reference value: 46 IU/L). It counts as organism-based. The conditions noted are these: chlorocebus sabaeus, in vivo.

For series [13], the system named is African green monkey. Kind of series: Toxicity in African green monkey B6127 model infected with Yersinia pestis Colorado 92 assessed as stomach ulcer at 25 mg/kg, iv administered within 6 hrs post onset of sustained fever as 30 mins infusion for 10 days measured by hematoxylin staining based assay. Type of series: organism-based. The conditions noted are these: chlorocebus sabaeus, in vivo.

For series [14], the system named is Yersinia pestis. As to the kind of experiment: Antibacterial activity against Yersinia pestis Colorado 92 infected in African green monkey B6127 model assessed as bacterial burden in blood at 25 mg/kg, iv administered within 6 hrs post onset of sustained fever as 30 mins infusion for 10 days (reference value: 1.2 10^7CFU/ml). The conditions noted are these: CO92. Type of series: functional, organism-based.

Series [15] can be described thus: Toxicity in African green monkey B6408 model infected with Yersinia pestis Colorado 92 assessed as total white blood cell count at 25 mg/kg, iv administered within 6 hrs post onset of sustained fever as 30 mins infusion for 10 days (reference value: 6.9 10^3/microL). Type of series: organism-based. The conditions noted are these: chlorocebus aethiops, in vivo.

For series [16], the system named is Yersinia pestis. As to the kind of experiment: Antibacterial activity against Yersinia pestis Colorado 92 infected in African green monkey B6436 model assessed as bacterial burden in lung at 25 mg/kg, iv administered within 6 hrs post onset of sustained fever as 30 mins infusion for 5 days (reference value: 7.7 10^8CFU/g). Type of series: functional, CO92.
In series [17] the test system is Yersinia pestis. As to the kind of experiment: Antibacterial activity against Yersinia pestis Colorado 92 infected in African green monkey B6889 model assessed as bacterial burden in tracheobronchial lymph nodes at 6.25 mg/kg, iv administered within 6 hrs post onset of sustained fever as 30 mins infusion for 5 days (reference value: 7.7 10^9CFU/g). Type of series: functional, CO92, Lymph node.

Series [18] concerns African green monkey. Kind of series: Toxicity in African green monkey B6127 model infected with Yersinia pestis Colorado 92 assessed as effect on serum electrolyte abnormality at 25 mg/kg, iv administered within 6 hrs post onset of sustained fever as 30 mins infusion for 10 days. It counts as organism-based. The conditions noted are these: chlorocebus sabaeus, in vivo.
Series [19] has as its system African green monkey. Kind of series: Toxicity in African green monkey 7929 model infected with Yersinia pestis Colorado 92 assessed as serum gamma glutamyl-transferase level at 25 mg/kg, iv administered within 6 hrs post onset of sustained fever as 30 mins infusion for 10 days (reference value: 44 IU/L). Type of series: organism-based. The conditions noted are these: chlorocebus sabaeus, in vivo.

Series [20] deals with Yersinia pestis. Kind of series: Antibacterial activity against Yersinia pestis Colorado 92 infected in African green monkey B6960 model assessed as bacterial burden in kidney at 6.25 mg/kg, iv administered within 6 hrs post onset of sustained fever as 30 mins infusion for 5 days (reference value: 7.1 10^7CFU/g). Type of series: functional, CO92.

Each structure is given as a SMILES string.

The Cmax is the highest concentration seen after dosing.

As for `CN[C@@H]1[C@@H](O)[C@@H](O[C@@H]2[C@@H](O)[C@H](O[C@H]3OC(CNCCO)=CC[C@H]3N)[C@@H](N)C[C@H]2NC(=O)[C@@H](O)CCN)OC[C@]1(C)O` [PLAZOMICIN], the Activity in the series on Yersinia pestis [1] was 6.6 ×10⁹ CFU/g; in the series with Yersinia pestis [2], 76 CFU/g; with Yersinia pestis [3] it was 95 CFU/g; with Yersinia pestis [4], 11 CFU/ml; in the series on Yersinia pestis [6] it was 8.3 ×10⁶ CFU/g; with Yersinia pestis [7] it was 31 CFU/g. The Activity was 7.2 ×10³ /uL in [8]; 94 IU/L in the series with African green monkey [9]; 26 mg/dL in the series on African green monkey [11]; 38 IU/L in the series with African green monkey [12]; “Toxic” with African green monkey [13]; “Below limit of detection” in the series on Yersinia pestis [14]. For the same molecule, the Activity in [15] was 5.5 ×10³ /uL; with Yersinia pestis [16], 44 CFU/g; with Yersinia pestis [17] it was 3.6 ×10⁹ CFU/g; with African green monkey [18], “Toxic”; in the series on African green monkey [19], 16 IU/L; in the series with Yersinia pestis [20], 72 CFU/g. In addition, the survival at 12.5 mg/kg with Yersinia pestis [5] was 33%. In series [10], this molecule showed a Cmax of 185 µg/mL.
